From ChEMBL document CHEMBL5154879, “Induction of Genes Implicated in Stress Response and Autophagy by a Novel Quinolin-8-yl-nicotinamide QN523 in Pancreatic Cancer” (J Med Chem, 2022)
The source made the active and inactive calls. The calls are words filed in the database; no cut-off is given here.

Assays:
SNU-387 = test: Antiproliferative activity against human SNU-387 cells assessed as inhibition of cell growth incubated for 72 hrs by MTT assay; type: functional, cell-based; conditions: SNU-387, 72 h
[1] = Toxicity in NOD/SCID mouse xenografted with human MIA PaCa- 2 cells assessed as morphological changes in liver at 10 to 20 mg/kg, ip administered five times a week for 44 days by H and E staining based inverted microscopic analysis; type: organism-based; conditions: in vivo, 1056 h, dose 10-20 mg/kg, time 44 day
MIA PaCa-2 [2] = test: Downregulation of cell cycle gene expression in human MIA PaCa-2 cells; type: functional, cell-based
[3] = Toxicity in NOD/SCID mouse xenografted with human MIA PaCa-2 cells assessed as weakness at 10 to 20 mg/kg, ip administered five times a week for 44 days; type: organism-based; conditions: in vivo, 1056 h, dose 10-20 mg/kg, time 44 day
MIA PaCa-2 [4] = test: Downregulation of E2F target gene expression in human MIA PaCa-2 cells by gene set enrichment analysis; type: functional, cell-based
HCT-116 = test: Antiproliferative activity against human HCT-116 cells assessed as inhibition of cell growth incubated for 72 hrs by MTT assay; type: functional, cell-based; conditions: HCT-116, 72 h
MIA PaCa-2 [5] = test: Induction of cell cycle arrest in human MIA PaCa-2 cells assessed as accumulation of cells in G2/M phase at 0.1 uM incubated for 48 hrs by RNase/propidium iodide staining based flow cytometry analysis (reference value: 2.71%); type: functional
[6] = Toxicity in NOD/SCID mouse xenografted with human MIA PaCa-2 cells assessed as weight loss at 10 to 20 mg/kg, ip administered five times a week for 44 days; type: organism-based; conditions: in vivo, 1056 h, dose 10-20 mg/kg, time 44 day
MIA PaCa-2 [7] = test: Upregulation of MTOR signalling in human MIA PaCa-2 cells by gene set enrichment analysis; type: functional, cell-based
MIA PaCa-2 [8] = test: Upregulation of CHOP gene expression in human MIA PaCa-2 cells incubated for 72 hrs by Western blot analysis; type: functional, cell-based; conditions: dose <= 600.0 µM, DDE = dose-dependent effect
[9] = Downregulation of ANKDDIA gene expression in human MIA PaCa-2 cells assessed as fold change in ANKDDIA expression at 1 uM incubated for 24 hrs by Bru-seq analysis relative to control; type: functional
MIA PaCa-2 [10] = test: Antitumor activity against human MIA PaCa-2 cells xenografted in NOD/SCID mouse assessed as tumor growth delay at 30 mg/kg, ip administered five times a week starting from day 44 to 51 post first dose; type: functional, organism-based; conditions: time 51.0 day
[11] = Upregulation of TRIB3 gene expression in human MIA PaCa-2 cells assessed as fold change in TRIB3 expression at 1 uM incubated for 24 hrs by Bru-seq analysis relative to control; type: functional
MIA PaCa-2 [12] = test: Induction of autophagy in human MIA PaCa-2 cells assessed as accumulation of GABARAPL1 marker gene expression at upto 2 uM incubated for 72 hrs by Western blot analysis; type: functional, cell-based
[13] = Toxicity in NOD/SCID mouse xenografted with human MIA PaCa-2 cells assessed as lethargy at 10 to 20 mg/kg, ip administered five times a week for 44 days; type: organism-based; conditions: in vivo, 1056 h, dose 10-20 mg/kg, time 44 day
MIA PaCa-2 [14] = test: Induction of apoptosis in human MIA PaCa-2 cells assessed as viable cells at 0.5 uM incubated for 48 hrs by Annexin V-FITC/PI staining based flow cytometry analysis (reference value: 96.3%); type: functional; conditions: read-out: Activity
[15] = Downregulation of CCDC85C gene expression in human MIA PaCa-2 cells assessed as fold change in CCDC85C expression at 1 uM incubated for 24 hrs by Bru-seq analysis relative to control; type: functional
[16] = Downregulation of TACC3 gene expression in human MIA PaCa-2 cells assessed as fold change in TACC3 expression at 1 uM incubated for 24 hrs by Bru-seq analysis relative to control; type: functional
MIA PaCa-2 [17] = test: Induction of cell cycle arrest in human MIA PaCa-2 cells assessed as accumulation of cells in G2/M phase at 0.5 uM incubated for 48 hrs by RNase/propidium iodide staining based flow cytometry analysis (reference value: 2.71%); type: functional
[18] = Downregulation of SEMA4C gene expression in human MIA PaCa-2 cells assessed as fold change in SEMA4C expression at 1 uM incubated for 24 hrs by Bru-seq analysis relative to control; type: functional
Hep 3B2 = test: Antiproliferative activity against human Hep3B cells assessed as inhibition of cell growth incubated for 72 hrs by MTT assay; type: functional, cell-based
[19] = Upregulation of SLFN5 gene expression in human MIA PaCa-2 cells assessed as fold change in SLFN5 expression at 1 uM incubated for 24 hrs by Bru-seq analysis relative to control; type: functional
[20] = Downregulation of FGF18 gene expression in human MIA PaCa-2 cells assessed as fold change in FGF18 expression at 1 uM incubated for 24 hrs by Bru-seq analysis relative to control; type: functional
MIA PaCa-2 [21] = test: Induction of apoptosis in human MIA PaCa-2 cells assessed as early apoptotic cells at 0.1 uM incubated for 24 hrs by Annexin V-FITC/PI staining based flow cytometry analysis (reference value: 5.1%); type: functional
[22] = Downregulation of CCNF gene expression in human MIA PaCa-2 cells assessed as fold change in CCNF expression at 1 uM incubated for 24 hrs by Bru-seq analysis relative to control; type: functional
MIA PaCa-2 [23] = test: Antiproliferative activity against human MIA PaCa-2 cells assessed as inhibition of cell growth at 0.1 to 10 uM incubated for 1 to 72 hrs followed by compound washout with PBS and replacement with fresh culture medium and measured after 72 hrs by MTT assay; type: functional, cell-based; conditions: dose 0.1-10 µM, time 1-72 hrs, TDE = time-dependent effect

O=C(Nc1cccc2cccnc12)c1cnccn1
IC50 (SNU-387): 5730 nM | Activity [1]: Non-Toxic | Activity (MIA PaCa-2 [2]): Active | Activity [3]: Non-Toxic | Activity (MIA PaCa-2 [4]): Active | IC50 (HCT-116): 100 nM | Activity (MIA PaCa-2 [5]): 8.22% | Activity [6]: Non-Toxic | Activity (MIA PaCa-2 [7]): Active | Activity (MIA PaCa-2 [8]): Dde | fold change (FC) [9]: 0.45 | Activity (MIA PaCa-2 [10]): Active | fold change (FC) [11]: 14.5 | Activity (MIA PaCa-2 [12]): Active | Activity [13]: Non-Toxic | viability at 0.5 µM (MIA PaCa-2 [14]): 95.3% | fold change (FC) [15]: 0.42 | fold change (FC) [16]: 0.45 | Activity (MIA PaCa-2 [17]): 11.5% | fold change (FC) [18]: 0.39 | IC50 (Hep 3B2): 210 nM | fold change (FC) [19]: 10.3 | fold change (FC) [20]: 0.32 | Activity (MIA PaCa-2 [21]): 10.7% | fold change (FC) [22]: 0.36 | Activity (MIA PaCa-2 [23]): Tde
